The text below walks through data of ChEMBL document CHEMBL2331554, “Exploring nature profits: development of novel and potent lipophilic antioxidants based on galloyl-cinnamic hybrids” (Eur J Med Chem, 2013).

Assay [1] can be described thus: Antioxidant activity assessed as inhibition of ABTS radical formation for 15 mins by spectrophotometric analysis. The assay is classed as functional.
The subject of assay [2] is Radical scavenging activity. The assay can be described thus: Antioxidant activity assessed as inhibition of DPPH radical formation measured every min for 45 mins by spectrophotometric analysis. It is filed as functional. For orientation: Loss of DPPH colour is used to gauge radical scavenging.

As a reminder, the IC50 is the concentration needed to halve the response being measured. With `O=C(O)/C=C/c1cc(O)c(O)c(O)c1`, in assay [1], the IC50 is 7.2 µM and the inhibition entry is “Dose-dependent effect”. Also, in assay [2], the IC50 was 11.8 µM and the inhibition result was “Dose-dependent effect”.
With `CCOC(=O)C(=Cc1ccc(O)c(O)c1)C(=O)OCC`, in assay [1], the IC50 came out at 21.1 µM and the inhibition entry is “Dose-dependent effect”. Also, in assay [2], the IC50 is 21.9 µM and the inhibition entry is “Dose-dependent effect”.
On to `CCOC(=O)/C=C/c1cc(O)c(O)c(O)c1`, for which the IC50 in assay [1] came to 9 µM; in assay [2], 15.1 µM. For the same compound, the inhibition entry in assay [1] and in assay [2] was “Dose-dependent effect” throughout.
Turning to `CCOC(=O)C(=Cc1cc(O)c(O)c(O)c1)C(=O)OCC`, in assay [1], the IC50 is 7.7 µM and the inhibition result was “Dose-dependent effect”. In addition, in assay [2], the IC50 is 12.8 µM and the inhibition result was “Dose-dependent effect”.
Consider `O=C(O)/C=C/c1ccc(O)c(O)c1` [CAFFEIC ACID], for which the IC50 in assay [1] is 17.9 µM; in assay [2], 18.1 µM. Further, the inhibition entry in assay [1] and in assay [2] was “Dose-dependent effect” throughout.
As for `CCOC(=O)/C=C/c1ccc(O)c(O)c1` [ETHYL CAFFEATE], the IC50 in assay [1] came out at 22.6 µM; in assay [2], 26.6 µM. In addition, the inhibition entry in assay [1] and in assay [2] was “Dose-dependent effect” in each case.
Turning to `O=C(O)c1cc(O)c(O)c(O)c1` [GALLIC ACID], in assay [1], the IC50 was 7.8 µM and the inhibition entry is “Dose-dependent effect”. In assay [2], the IC50 came out at 9.9 µM and the inhibition result was “Dose-dependent effect”.
With `Cc1c(C)c2c(c(C)c1O)CCC(C)(C(=O)O)O2` (stereo unspecified) [TROLOX], in assay [1], the half-inhibitory concentration (IC50) was 26.3 µM and the inhibition entry was “Dose-dependent effect”. Further, in assay [2], the IC50 was 30.9 µM and the inhibition result was “Dose-dependent effect”.
With VITAMIN E [listing 1 of 2 here], the IC50 amounted to 26.8 µM in assay [1] and 31.1 µM in assay [2].
Take VITAMIN E [listing 2 of 2 here]: the inhibition result in assay [1] and in assay [2] was “Dose-dependent effect” in each case.
